In patent US8858995B2, “Methods and compositions for controlled delivery of phytochemical agents” (priority 2008, dated 2014):
Values joined by “and” are separate entries in the source; they are usually repeats but may differ in a detail not shown here. Identical values can stand only once.

What was measured:
[1] = Plasma, liver and brain curcumin levels, implants versus diet (HPLC-fluorescence); format: in vivo, ACI rats; conditions: for plasma curcumin level: curcumin diet
Source text: (§1) The in vivo cumulative release was studied in female Augustus Copenhagen Irish (ACI) rats following an approved protocol from an Institutional Animal Care and Use Committee (IACUC). […] All the animals were provided food and water ad libitum. Sham and curcumin implants were subcutaneously grafted at the back of the rats and were monitored for their diet intake and body weight. Animals were euthanized at different time intervals by asphyxiation to collect blood, liver, brain, local tissues and implants. All the tissues were snap frozen in liquid nitrogen and stored at −80° C. until further analysis.
Plasma pooled from all the animals (1.5 ml) was mixed with […] of 0.5 M sodium acetate to reduce the pH to 5. Plasma was then extracted three times with 3 ml ethyl acetate. Ethyl acetate extracts were pooled and dried under vacuum. The dried residue was reconstituted in 100 μl of acetonitrile, and one-half of the solution was analyzed by HPLC. Similarly, liver or brain tissue (approximately 500 mg) from each animal was homogenized in 3 ml PBS (pH 7.4) containing 200 μl sodium acetate (0.5 M). The homogenate was then extracted twice with two volumes of ethyl acetate. After evaporation of ethyl acetate under vacuum, the residue was reconstituted in 1 ml acetonitrile. The solution was filtered through 0.45 μm glass-microfiber filter and evaporated again under vacuum. The residue was finally reconstituted in 100 μl acetonitrile, and one-half of it was analyzed by HPLC using a Shimadzu liquid chromatography system equipped with LC-10ADVP pump, RF-10AXL fluorescence detector and a Shimadzu C18 column of 5 μm particles (250×4.6 mm). The three curcuminoids were separated by using acetonitrile and 1% citric acid (adjusted to pH 2.5) at a flow rate of 1 ml/min with a gradient elution in which acetonitrile concentration was increased from 0% to 30% in first 5 min, followed by an increase to 45% in next 5-20 min. Acetonitrile was then maintained at this ratio till 36 min. Curcuminoids were detected using 410 and 500 nm as excitation and emission maxima, respectively, in the fluorescence detector.

[2] = In vivo release of curcumin from PCL-121K:PEG-8K implants (residual content); parameters: species or system ACI rats
Source text: as §1
Initial and residual curcumin content in the implants was also analyzed to determine the cumulative drug release. Implants recovered from animals were dissolved in 5 ml dichloromethane. […] The solution was then diluted suitably (400-fold) with ethanol.
where T1, T2, T3, . . . Tn are different time intervals.

[3] = Tissue curcuminoid levels after coated implants (UPLC); format: in vivo, A/J mice; conditions: female, A/J, mouse, in vivo
Procedure: Briefly, liver and brain tissues (500 and 400 mg, respectively) from each animal were homogenized in 3 ml PBS (pH 7.4) containing 200 μl of 0.5 M sodium acetate, and extracted with ethyl acetate. After evaporation of the pooled extracts, the residue was reconstituted in 100 μl acetonitrile and analyzed by UPLC using Shimadzu UPLC system (Kyoto, Japan), with a Shim-Pack XR-ODS II reverse phase column (Shimadzu; 150×3.0 mm i.d., 2.2 μm).

GSTM = GSTM levels in hepatic microsomes (Western blotting); format: in vivo, ACI rats; conditions: implant and dietary routes
Procedure: To evaluate the xenobiotic-metabolizing enzymes, liver samples from the animals (approximately 100 mg) were homogenized in 0.25 M sucrose buffer (pH 7.4) at 3000 rpm with Polytron. The homogenate was centrifuged at 3000 g for 20 min at 4° C. to separate the nuclear content, and the supernatant was then collected and again centrifuged at 11,000 g for 20 min at 4° C. to separate the mitochondria. The post-mitochondrial supernatant was then transferred to ultracentrifuge tubes and finally centrifuged at 100,000 g for 1 h at 4° C. to separate the microsomes. The pellet was suspended in 1 ml sucrose buffer, aliquoted and stored at −80° C. until use.
Microsomal proteins were subsequently quantified using a bicinchoninic acid (BCA) method and a BCA™ Protein Assay kit (Thermo Scientific, Rockford, Ill.) and were resolved by sodium dodecyl sulfatepolyacrylamide gel electrophoresis (SDS-PAGE) on a 10% gel. Protein bands were then transferred to polyvinylidene diflouride (PVDF) membrane, which was incubated with 5% non-fat dried milk in Tris-buffered-saline for 1 h at room temperature (25° C.) to block the non-specific binding sites. […] The bands were detected by enhanced chemiluminescence using Pierce® ECL Western-Blotting Substrate (Thermo Scientific, Rockford, Ill.) and quantified using VersaDoc Imaging System (BioRad Laboratories, Hercules, Calif.).

[4] = Toxicity of coated implants (body weight, hematology, liver and kidney function); format: in vivo, A/J mice
Procedure: To assess the toxicity of the implants, blood was collected separately at the time of euthanasia and hematological parameters were analyzed using whole blood by Cell Dyn 3500 hematology analyzer (Abbott laboratories, Santa Clara, Calif.). Serum was used to analyze the liver and kidney function test. An ion selective electrode was used for various electrolytes analysis and in-built spectrophotometric techniques were used for all other biochemical parameters analysis on automated AU640 Chemistry analyzed (Beckman Coulter, Inc., Brea, Calif.).

[5] = female, ACI (Augustus Copenhagen Irish), rat, plasma, oral, 1000 ppm in diet

liver curcumin level ([1]; both routes (implants, diet), day 1): 25 to 30 ng | liver curcumin level ([1]; both routes, after 12 days): 10 to 15 ng | plasma curcumin level ([1]; 25 and 90 days): undetectable | plasma curcumin level ([1]; day 1): not observed | brain curcumin level ([1]; dietary administration 1000 ppm, all the time points): 2 to 3 ng/g | concentration at 1 day ([1]; female, ACI (Augustus Copenhagen Irish), rat, brain, subcutaneous, 2 2-cm curcumin implants, implant route, day 1): 30 ± 7.3 ng/g | Kp ([1]; female, ACI (Augustus Copenhagen Irish), rat, liver (against plasma), other: both routes (subcutaneous implants, diet), via both routes): 10 to 20 | concentration at 4 day [1, 5]: 0.3 ng/mL and 0.815 nM | concentration at 12 days [1, 5]: 0.543 nM and 0.2 ng/mL | concentration at 3 months ([1]; female, ACI (Augustus Copenhagen Irish), rat, plasma, subcutaneous, 2 2-cm curcumin implants, implants, after 3 months): ~0.2 ng/mL and 0.543 nM | concentration at 1 day ([1]; female, ACI (Augustus Copenhagen Irish), rat, plasma, subcutaneous, 2 2-cm curcumin implants, implants, day 1): 9 nM | concentration at 4 day ([1]; female, ACI (Augustus Copenhagen Irish), rat, plasma, subcutaneous, 2 2-cm curcumin implants, implants, day 4): 1.4 ng/mL and 4 nM | concentration at 1 day ([1]; female, ACI (Augustus Copenhagen Irish), rat, subcutaneous, 2 2-cm curcumin implants, implants (two 2-cm), day 1, pooled plasma): 3.3 ng/mL | brain curcumin level ([1]; implant route, after 12 days, same levels after 90 days): around 7.26±2.45 ng/g tissue | curcumin concentration in brain tissue, implant route higher than diet ([1]; rat, in vivo): approximately 3.5 fold | plasma and liver concentrations observed in the in vivo study ([1]; rat, in vivo): 78 to 95 nM | in vivo burst release on day 1 ([2]; 2-cm implant, 40 mg, s.c.): approximately 1800 μg | curcumin released after 1 day of implantation ([2]; from weight loss studies): 1.8 mg | curcumin delivered by both the implants combined ([2]; over 90 days, versus around 900 mg by diet): 38 mg | cumulative in vivo release after 1 month ([2]; rat, in vivo): approximately 30% | in vivo drug release after 3 months ([2]; rat, in vivo): approximately 130 μg/day | in vivo drug release over a period of 1 month ([2]; rat, in vivo): 300 to 350 µg/day | in vivo release on day 4 ([2]; rat, in vivo): approximately 380 μg | concentration at 21 days [3]: 15 ng/g
SMILES: COc1cc(/C=C/C(=O)CC(=O)/C=C/c2ccc(O)c(OC)c2)ccc1O [curcumin]
GSTM levels (GSTM): not found to get modulated | hematological parameters, liver enzymes, biochemical parameters of kidney function versus sham implant ([4]; 3 weeks after grafting): No significant differences | body weight ([4]; s.c. polymeric implants): no effect on the body weight
